Experiments:
[1] = biological target: Protein farnesyltransferase (Mus musculus, UniProt Q61239+Q8K2I1); experiment: Reduced farnesylation of H-ras transformed NIH3T3 cells; assay type: functional, cell-based
[2] = biological target: T1, Geranylgeranyl transferase type I (Bos taurus, UniProt P29702+Q5EAD5); experiment: inhibitory concentration needed to reduce the bovine GGTase-catalyzed incorporation of […] into a biotin-linked K-ras (B) decapeptide; assay type: protein-complex assay
[3] = Inhibition of [3H]FPP incorporation into biotin-linked K-ras decapeptide (CVIM) by bovine farnesyltransferase; parameters: species or system Bos taurus
[4] = Inhibition of [3H]-FPP incorporation into biotin-linked K-ras decapeptide (CVIM) by bovine farnesyltransferase; parameters: species or system Bos taurus
[5] = biological target: T1, Geranylgeranyl transferase type I; experiment: Inhibition of [3H]FPP incorporation into biotin-linked K-ras decapeptide (CVLL) by bovine geranylgeranyltransferase; assay type: protein-complex assay
[6] = Plasma clearance was determined; assay type: ADME, organism-based, Canis lupus familiaris; conditions: dog, in vivo
[7] = Oral bioavailability in dog; assay type: ADME, organism-based, Canis lupus familiaris; conditions: in vivo
[8] = Half life in dog; assay type: ADME, Canis lupus familiaris; conditions: in vivo

Structure (SMILES) | EC50 [1] | IC50 [2] | IC50 [3] | other results
Cn1cncc1C(OCc1c(-c2cccc(Cl)c2)cc(C#N)n(C)c1=O)c1ccc(C#N)cc1 (configuration not stated) | 11.4 nM | > 10000 nM | 1.2 nM | –
Cn1cncc1C(OCc1cn(Cc2cccnc2Br)c(=O)cc1-c1cccc(Cl)c1)c1ccc(C#N)cc1 (configuration not stated) | – | 6600 nM | 3 nM | –
Cn1cncc1C(OCc1cn(Cc2cccc(Cl)c2)c(=O)cc1-c1cccc(Cl)c1)c1ccc(C#N)cc1 (configuration not stated) | 10 nM | 1200 nM | 2.1 nM | –
Cn1cncc1C(OCc1c(-c2cccc(Cl)c2)cc(C#N)c(=O)n1C)c1ccc(C#N)cc1 (configuration not stated) | 0.5 nM | 2.7 nM | 0.44 nM | –
Cn1cncc1C(OCc1cn(CC#N)c(=O)cc1-c1cccc(Cl)c1)c1ccc(C#N)cc1 (configuration not stated) | – | > 10000 nM | 19 nM | –
Cn1cncc1C(OCc1cn(Cc2ccc(C#N)cc2)c(=O)cc1-c1cccc(Cl)c1)c1ccc(C#N)cc1 (configuration not stated) | – | – | – | IC50 [4]: 5 nM; IC50 [5]: > 10000 nM
Cn1cncc1C(OCc1c[nH]c(=O)cc1-c1cccc(Cl)c1)c1ccc(C#N)cc1 (configuration not stated) | – | 6200 nM | – | –
Cn1cncc1C(OCc1cn(C)c(=O)cc1-c1cccc(Cl)c1)c1ccc(C#N)cc1 (configuration not stated) | – | > 10000 nM | 12 nM | –

Further molecules by falling IC50 [2], results first:

EC50 [1] | IC50 [2] | IC50 [3] | Structure (SMILES) | other results
15 nM | 9400 nM | 1.1 nM | Cn1cncc1C(OCc1c(-c2cc(Cl)cc(Cl)c2)cc(C#N)n(C)c1=O)c1ccc(C#N)cc1 (configuration not stated) | –
– | 7700 nM | 2.3 nM | Cn1cncc1C(OCc1cn(Cc2ccccc2C#N)c(=O)cc1-c1cccc(Cl)c1)c1ccc(C#N)cc1 (configuration not stated) | –
– | 3600 nM | 7.5 nM | Cn1cncc1C(OCc1c(-c2cccc(C(F)(F)F)c2)cc(C#N)n(C)c1=O)c1ccc(C#N)cc1 (configuration not stated) | –
15 nM | 2000 nM | 2.1 nM | Cn1cncc1C(OCc1cn(Cc2cccc(F)c2)c(=O)cc1-c1cccc(Cl)c1)c1ccc(C#N)cc1 (configuration not stated) | –
9 nM | 1900 nM | 1.3 nM | Cn1cncc1C(OCc1cn(Cc2cccc(C#N)c2)c(=O)cc1-c1cccc(Cl)c1)c1ccc(C#N)cc1 (configuration not stated) | Plasma clearance [6]: 8.83 mL/min/kg; bioavailability [7]: 47%; half-life [8]: 1.4 h
5.2 nM | 1.3 nM | 0.87 nM | Cn1cncc1C(OCc1ccc(C#N)cc1-c1cccc(Cl)c1)c1ccc(C#N)cc1 (configuration not stated) | –

— ChEMBL document CHEMBL1137034, “Synthesis of 1H-pyridin-2-one derivatives as potent and selective farnesyltransferase inhibitors” (Bioorg Med Chem Lett, 2004)
